The text below walks through data of ChEMBL document CHEMBL1128215, “Introduction of a conformational switching element on a pyrrolidine ring. Synthesis and evaluation of (R*,R*)-(+/-)-methyl 3-acetyl-4-[3- (cyclopentyloxy)-4-methoxyphenyl]-3-methyl-1-pyrrolidinecarboxylate, a potent and selective inhibitor of cAMP-specific phosphodiesterase” (J Med Chem, 1995).

The target of one assay is Phosphodiesterase 4 (Homo sapiens, UniProt P27815+Q08499+Q07343+Q08493). Briefly: Inhibition of cAMP hydrolysis by human Phosphodiesterase 4. It counts as protein assay.
In the next assay the target is Phosphodiesterase 3 (Homo sapiens, UniProt Q14432+Q13370). Description: Inhibition of Phosphodiesterase 3 from human pulmonary artery. It counts as tissue-based.
The target in a further assay is Phosphodiesterase 1 (Bos taurus, UniProt Q01061+P14100). Description: Inhibition of Phosphodiesterase 1 from bovine aorta. It counts as protein assay.
The target in assay [1] is High affinity 3',5'-cyclic-AMP phosphodiesterase 7A (Homo sapiens, UniProt Q13946). Description: Inhibition of human Phosphodiesterase 7.
Sequence of High affinity 3',5'-cyclic-AMP phosphodiesterase 7A (Q13946 whole entry): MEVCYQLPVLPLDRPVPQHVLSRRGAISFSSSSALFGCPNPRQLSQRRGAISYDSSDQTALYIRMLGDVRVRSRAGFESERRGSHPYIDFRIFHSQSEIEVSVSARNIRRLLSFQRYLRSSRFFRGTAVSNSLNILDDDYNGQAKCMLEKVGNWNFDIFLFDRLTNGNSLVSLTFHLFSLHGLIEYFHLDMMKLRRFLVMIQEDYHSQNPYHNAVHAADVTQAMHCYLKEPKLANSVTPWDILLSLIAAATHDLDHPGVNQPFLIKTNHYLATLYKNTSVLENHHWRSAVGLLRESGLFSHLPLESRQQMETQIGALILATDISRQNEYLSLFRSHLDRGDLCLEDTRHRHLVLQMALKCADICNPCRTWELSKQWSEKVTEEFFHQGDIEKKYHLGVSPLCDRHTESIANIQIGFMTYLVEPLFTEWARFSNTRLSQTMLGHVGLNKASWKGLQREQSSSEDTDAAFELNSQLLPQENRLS
Assay [2] concerns the target cGMP-specific 3',5'-cyclic phosphodiesterase (Homo sapiens, UniProt O76074). Briefly: Inhibition of Phosphodiesterase 5 isolated from human trachea. The class given is tissue-based.
In the next assay the target is Phosphodiesterase 6. Description: Inhibition of Phosphodiesterase 6 from bovine retina. The class given is protein assay, Bos taurus.
In assay [3] the target is T1, cGMP-dependent 3',5'-cyclic phosphodiesterase (Bos taurus, UniProt P14099).
T1 sequence (P14099 whole entry): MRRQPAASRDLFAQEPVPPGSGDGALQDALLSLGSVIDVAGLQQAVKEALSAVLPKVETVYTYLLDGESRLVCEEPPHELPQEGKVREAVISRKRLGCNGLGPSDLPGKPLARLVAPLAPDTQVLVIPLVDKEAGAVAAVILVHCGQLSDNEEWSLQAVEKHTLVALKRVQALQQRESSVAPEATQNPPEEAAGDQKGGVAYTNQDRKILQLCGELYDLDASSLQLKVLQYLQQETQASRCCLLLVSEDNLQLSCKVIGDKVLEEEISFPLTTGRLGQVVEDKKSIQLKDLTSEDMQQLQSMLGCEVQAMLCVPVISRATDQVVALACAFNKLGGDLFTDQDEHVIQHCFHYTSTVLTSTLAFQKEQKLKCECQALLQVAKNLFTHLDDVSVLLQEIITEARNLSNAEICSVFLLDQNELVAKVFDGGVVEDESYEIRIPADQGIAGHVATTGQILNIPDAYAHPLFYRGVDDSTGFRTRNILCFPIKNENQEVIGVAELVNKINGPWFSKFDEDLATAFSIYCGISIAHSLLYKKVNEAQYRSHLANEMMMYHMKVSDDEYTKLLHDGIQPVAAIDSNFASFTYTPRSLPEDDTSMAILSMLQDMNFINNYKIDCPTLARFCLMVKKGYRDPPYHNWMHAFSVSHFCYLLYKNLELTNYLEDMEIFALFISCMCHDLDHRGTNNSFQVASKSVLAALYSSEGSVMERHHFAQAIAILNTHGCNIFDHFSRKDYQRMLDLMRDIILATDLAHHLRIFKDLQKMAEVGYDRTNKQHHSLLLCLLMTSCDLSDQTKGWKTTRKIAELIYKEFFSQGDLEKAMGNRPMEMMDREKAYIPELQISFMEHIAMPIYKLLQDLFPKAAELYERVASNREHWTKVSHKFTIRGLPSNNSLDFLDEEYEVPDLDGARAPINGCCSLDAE
Briefly: Inhibition of bovine Phosphodiesterase 2.

On Phosphodiesterase 4, `COC(=O)N1C[C@@H](c2ccc(OC)c(OC3CCCC3)c2)[C@](C)(CO)C1` returned a Ki of 37 nM. `COC(=O)N1C[C@H](C)[C@H](c2ccc(OC)c(OC3CCCC3)c2)C1` returned a Ki at Phosphodiesterase 4 of 100 nM. Still for that read-out and setting: the value for `COC(=O)N1CC[C@H](c2ccc(OC)c(OC3CCCC3)c2)C1` was 110 nM; that for `COC(=O)N1C[C@@H](CO)[C@H](c2ccc(OC)c(OC3CCCC3)c2)C1` was 224 nM. For `COC(=O)N1C[C@@H](c2ccc(OC)c(OC3CCCC3)c2)[C@](C)(C(C)=O)C1`, the Ki is more than 100000 nM on Phosphodiesterase 3; more than 100000 nM on Phosphodiesterase 1; 7900 nM in assay [1]; 1 nM at Phosphodiesterase 4; more than 100000 nM in assay [2]; more than 100000 nM at Phosphodiesterase 6. The compound also registered a Ki in assay [3] of more than 100000 nM. With `CC[C@@]1(C(C)=O)CN(C(=O)OC)C[C@H]1c1ccc(OC)c(OC2CCCC2)c1`, the Ki on Phosphodiesterase 4 is 10 nM. Same read-out and setting: the value for `CCOC(=O)[C@]1(C)CN(C(=O)OC)C[C@H]1c1ccc(OC)c(OC2CCCC2)c1` was 86 nM. The same measure, in the same setting: the value for `COC(=O)N1C[C@@H](c2ccc(OC)c(OC3CCCC3)c2)[C@](C)(C(=O)OC)C1` was 3 nM; that for `COC(=O)[C@@H]1CN(C(=O)OC)C[C@H]1c1ccc(OC)c(OC2CCCC2)c1` was 159 nM; that for `COC(=O)N1C[C@@H](C(C)=O)[C@H](c2ccc(OC)c(OC3CCCC3)c2)C1` was 33 nM.

For the compound `CCOC(=O)[C@@H]1CN(C(=O)OC)C[C@H]1c1ccc(OC)c(OC2CCCC2)c1`, the Ki at Phosphodiesterase 4 was 550 nM.

Usually Ki stands for the dissociation constant of the complex between target and ligand, obtained from inhibition or displacement.
